# Assay results from BigSolDB 2.1.
smiles,measurement,setting,value
Sc1nc2ccccc2[nH]1,solubility (mole fraction),"in 1,4-dioxane, 278.15 K",0.0141
same,solubility (mole fraction),"in 1,4-dioxane, 283.15 K",0.0153
same,solubility (mole fraction),"in 1,4-dioxane, 288.15 K",0.0166
same,solubility (mole fraction),"in 1,4-dioxane, 293.15 K",0.0181
same,solubility (mole fraction),"in 1,4-dioxane, 298.15 K",0.0195
same,solubility (mole fraction),"in 1,4-dioxane, 303.15 K",0.021
same,solubility (mole fraction),"in 1,4-dioxane, 308.15 K",0.0227
same,solubility (mole fraction),"in 1,4-dioxane, 313.15 K",0.0246
same,solubility (mole fraction),"in 1,4-dioxane, 318.15 K",0.0265
same,solubility (mole fraction),"in 2-butanone, 278.15 K",0.0103
same,solubility (mole fraction),"in 2-butanone, 283.15 K",0.011
same,solubility (mole fraction),"in 2-butanone, 288.15 K",0.0117
same,solubility (mole fraction),"in 2-butanone, 293.15 K",0.0124
same,solubility (mole fraction),"in 2-butanone, 298.15 K",0.0133
same,solubility (mole fraction),"in 2-butanone, 303.15 K",0.0141
same,solubility (mole fraction),"in 2-butanone, 308.15 K",0.0151
same,solubility (mole fraction),"in 2-butanone, 313.15 K",0.0162
same,solubility (mole fraction),"in 2-butanone, 318.15 K",0.0172
same,solubility (mole fraction),"in acetone, 278.15 K",0.0121
same,solubility (mole fraction),"in acetone, 283.15 K",0.0128
same,solubility (mole fraction),"in acetone, 288.15 K",0.0135
same,solubility (mole fraction),"in acetone, 293.15 K",0.0143
same,solubility (mole fraction),"in acetone, 298.15 K",0.0152
same,solubility (mole fraction),"in acetone, 303.15 K",0.016
same,solubility (mole fraction),"in acetone, 308.15 K",0.0169
same,solubility (mole fraction),"in acetone, 313.15 K",0.0179
same,solubility (mole fraction),"in acetone, 318.15 K",0.0189
same,solubility (mole fraction),"in acetonitrile, 278.15 K",0.00102
same,solubility (mole fraction),"in acetonitrile, 283.15 K",0.00115
same,solubility (mole fraction),"in acetonitrile, 288.15 K",0.00129
same,solubility (mole fraction),"in acetonitrile, 293.15 K",0.00146
same,solubility (mole fraction),"in acetonitrile, 298.15 K",0.00163
same,solubility (mole fraction),"in acetonitrile, 303.15 K",0.00183
same,solubility (mole fraction),"in acetonitrile, 308.15 K",0.00205
same,solubility (mole fraction),"in acetonitrile, 313.15 K",0.00228
same,solubility (mole fraction),"in acetonitrile, 318.15 K",0.00257
same,solubility (mole fraction),"in cyclohexane, 278.15 K",4.36e-06
same,solubility (mole fraction),"in cyclohexane, 283.15 K",5.51e-06
same,solubility (mole fraction),"in cyclohexane, 288.15 K",7.05e-06
same,solubility (mole fraction),"in cyclohexane, 293.15 K",8.99e-06
same,solubility (mole fraction),"in cyclohexane, 298.15 K",1.16e-05
same,solubility (mole fraction),"in cyclohexane, 303.15 K",1.49e-05
same,solubility (mole fraction),"in cyclohexane, 308.15 K",1.88e-05
same,solubility (mole fraction),"in cyclohexane, 313.15 K",2.27e-05
same,solubility (mole fraction),"in cyclohexane, 318.15 K",2.81e-05
same,solubility (mole fraction),"in ethanol, 278.15 K",0.00532
same,solubility (mole fraction),"in ethanol, 283.15 K",0.00634
same,solubility (mole fraction),"in ethanol, 288.15 K",0.00746
same,solubility (mole fraction),"in ethanol, 293.15 K",0.00868
same,solubility (mole fraction),"in ethanol, 298.15 K",0.00998
same,solubility (mole fraction),"in ethanol, 303.15 K",0.0114
same,solubility (mole fraction),"in ethanol, 308.15 K",0.0126
same,solubility (mole fraction),"in ethanol, 313.15 K",0.0142
same,solubility (mole fraction),"in ethanol, 318.15 K",0.0158
same,solubility (mole fraction),"in ethyl acetate, 278.15 K",0.00198
same,solubility (mole fraction),"in ethyl acetate, 283.15 K",0.00236
same,solubility (mole fraction),"in ethyl acetate, 288.15 K",0.00275
same,solubility (mole fraction),"in ethyl acetate, 293.15 K",0.00318
same,solubility (mole fraction),"in ethyl acetate, 298.15 K",0.00366
same,solubility (mole fraction),"in ethyl acetate, 303.15 K",0.00413
same,solubility (mole fraction),"in ethyl acetate, 308.15 K",0.00463
same,solubility (mole fraction),"in ethyl acetate, 313.15 K",0.00518
same,solubility (mole fraction),"in ethyl acetate, 318.15 K",0.00577
same,solubility (mole fraction),"in isopropanol, 278.15 K",0.0034
same,solubility (mole fraction),"in isopropanol, 283.15 K",0.00435
same,solubility (mole fraction),"in isopropanol, 288.15 K",0.00528
same,solubility (mole fraction),"in isopropanol, 293.15 K",0.00635
same,solubility (mole fraction),"in isopropanol, 298.15 K",0.00755
same,solubility (mole fraction),"in isopropanol, 303.15 K",0.0088
same,solubility (mole fraction),"in isopropanol, 308.15 K",0.0102
same,solubility (mole fraction),"in isopropanol, 313.15 K",0.0116
same,solubility (mole fraction),"in isopropanol, 318.15 K",0.0132
same,solubility (mole fraction),"in methanol, 278.15 K",0.00625
same,solubility (mole fraction),"in methanol, 283.15 K",0.0073
same,solubility (mole fraction),"in methanol, 288.15 K",0.00848
same,solubility (mole fraction),"in methanol, 293.15 K",0.00964
same,solubility (mole fraction),"in methanol, 298.15 K",0.0109
same,solubility (mole fraction),"in methanol, 303.15 K",0.0123
same,solubility (mole fraction),"in methanol, 308.15 K",0.0138
same,solubility (mole fraction),"in methanol, 313.15 K",0.0152
same,solubility (mole fraction),"in methanol, 318.15 K",0.0169
same,solubility (mole fraction),"in n-butanol, 278.15 K",0.0041
same,solubility (mole fraction),"in n-butanol, 283.15 K",0.0049
same,solubility (mole fraction),"in n-butanol, 288.15 K",0.0058
same,solubility (mole fraction),"in n-butanol, 293.15 K",0.0069
same,solubility (mole fraction),"in n-butanol, 298.15 K",0.00809
same,solubility (mole fraction),"in n-butanol, 303.15 K",0.00941
same,solubility (mole fraction),"in n-butanol, 308.15 K",0.0109
same,solubility (mole fraction),"in n-butanol, 313.15 K",0.0125
same,solubility (mole fraction),"in n-butanol, 318.15 K",0.0144
same,solubility (mole fraction),"in n-propanol, 278.15 K",0.00484
same,solubility (mole fraction),"in n-propanol, 283.15 K",0.00559
same,solubility (mole fraction),"in n-propanol, 288.15 K",0.0065
same,solubility (mole fraction),"in n-propanol, 293.15 K",0.00759
same,solubility (mole fraction),"in n-propanol, 298.15 K",0.00872
same,solubility (mole fraction),"in n-propanol, 303.15 K",0.00999
same,solubility (mole fraction),"in n-propanol, 308.15 K",0.0114
same,solubility (mole fraction),"in n-propanol, 313.15 K",0.0131
same,solubility (mole fraction),"in n-propanol, 318.15 K",0.0151
same,solubility (mole fraction),"in toluene, 278.15 K",2.01e-05
same,solubility (mole fraction),"in toluene, 283.15 K",2.73e-05
same,solubility (mole fraction),"in toluene, 288.15 K",3.51e-05
same,solubility (mole fraction),"in toluene, 293.15 K",4.35e-05
same,solubility (mole fraction),"in toluene, 298.15 K",5.3e-05
same,solubility (mole fraction),"in toluene, 303.15 K",6.38e-05
same,solubility (mole fraction),"in toluene, 308.15 K",7.53e-05
same,solubility (mole fraction),"in toluene, 313.15 K",8.87e-05
same,solubility (mole fraction),"in toluene, 318.15 K",0.000104
